Results as given in the NIST ThermoML archive (doi:10.1016/j.jct.2008.10.002).
± gives the expanded uncertainty stated by the source.

How the values were obtained:
[1] = xn = mol fraction of the nth substance listed; conditions: 101.3 kPa, Liquid, Vibrating tube method
[2] = molar heat capacity at constant pressure; xn = mol fraction of the nth substance listed; conditions: 101.3 kPa, Liquid, Small sample (50 mg) DSC
[3] = excess molar enthalpy (molar enthalpy of mixing); xn = mol fraction of the nth substance listed; conditions: 303.15 K, 101.3 kPa, Liquid

CCOS(=O)(=O)[O-].CCn1cc[n+](C)c1 [1-ethyl-3-methylimidazolium ethyl sulfate] + O
Conditions | mass density, [1] [kg/m3] | molar heat capacity at constant pressure, [2] [J/K/mol]
293.15 K, x1 = 0.0477 | 1084.8 ± 0.4 | 92.6 ± 1.4
293.15 K, x1 = 0.1033 | 1138.7 ± 0.4 | 109.8 ± 1.7
293.15 K, x1 = 0.2048 | 1184.3 ± 0.4 | 140.4 ± 2.2
293.15 K, x1 = 0.2943 | 1203.3 ± 0.4 | 167.1 ± 2.6
293.15 K, x1 = 0.3847 | 1214.7 ± 0.4 | 194.3 ± 3
293.15 K, x1 = 0.4774 | 1222.5 ± 0.4 | 222.7 ± 3.5
293.15 K, x1 = 0.5797 | 1228.5 ± 0.4 | 254.6 ± 3.9
293.15 K, x1 = 0.6632 | 1232 ± 0.4 | 281.3 ± 4.4
293.15 K, x1 = 0.8092 | 1236.6 ± 0.4 | 328.9 ± 5.1
293.15 K, x1 = 0.907 | 1238.9 ± 0.4 | 360.9 ± 5.6
298.15 K, x1 = 0.0477 | 1082.3 ± 0.4 | 92.9 ± 1.4
298.15 K, x1 = 0.1033 | 1135.4 ± 0.4 | 110.5 ± 1.7
298.15 K, x1 = 0.2048 | 1180.8 ± 0.4 | 141.4 ± 2.2
298.15 K, x1 = 0.2943 | 1199.8 ± 0.4 | 168.3 ± 2.6
298.15 K, x1 = 0.3847 | 1211.3 ± 0.4 | 195.7 ± 3
298.15 K, x1 = 0.4774 | 1219.1 ± 0.4 | 224.2 ± 3.5
298.15 K, x1 = 0.5797 | 1225 ± 0.4 | 256.2 ± 4
298.15 K, x1 = 0.6632 | 1228.6 ± 0.4 | 283.1 ± 4.4
298.15 K, x1 = 0.8092 | 1233.2 ± 0.4 | 330.9 ± 5.1
298.15 K, x1 = 0.907 | 1235.5 ± 0.4 | 363.1 ± 5.6
303.15 K, x1 = 0.0477 | 1079.6 ± 0.4 | 93.3 ± 1.4
303.15 K, x1 = 0.1033 | 1132.1 ± 0.4 | 111.2 ± 1.7
303.15 K, x1 = 0.2048 | 1177.2 ± 0.4 | 142.6 ± 2.2
303.15 K, x1 = 0.2943 | 1196.3 ± 0.4 | 169.7 ± 2.6
303.15 K, x1 = 0.3847 | 1207.8 ± 0.4 | 197.1 ± 3.1
303.15 K, x1 = 0.4774 | 1215.6 ± 0.4 | 225.8 ± 3.5
303.15 K, x1 = 0.5797 | 1221.6 ± 0.4 | 258 ± 4
303.15 K, x1 = 0.6632 | 1225.2 ± 0.4 | 285 ± 4.4
303.15 K, x1 = 0.8092 | 1229.8 ± 0.4 | 333 ± 5.2
303.15 K, x1 = 0.907 | 1232.1 ± 0.4 | 365.3 ± 5.7
308.15 K, x1 = 0.0477 | 1076.9 ± 0.4 | 93.6 ± 1.5
308.15 K, x1 = 0.1033 | 1128.7 ± 0.4 | 111.9 ± 1.7
308.15 K, x1 = 0.2048 | 1173.6 ± 0.4 | 143.7 ± 2.2
308.15 K, x1 = 0.2943 | 1192.7 ± 0.4 | 171 ± 2.7
308.15 K, x1 = 0.3847 | 1204.3 ± 0.4 | 198.6 ± 3.1
308.15 K, x1 = 0.4774 | 1212.2 ± 0.4 | 227.5 ± 3.5
308.15 K, x1 = 0.5797 | 1218.2 ± 0.4 | 259.9 ± 4
308.15 K, x1 = 0.6632 | 1221.8 ± 0.4 | 287.1 ± 4.4
308.15 K, x1 = 0.8092 | 1226.4 ± 0.4 | 335.3 ± 5.2
308.15 K, x1 = 0.907 | 1228.7 ± 0.4 | 367.7 ± 5.7
313.15 K, x1 = 0.0477 | 1073.9 ± 0.4 | 93.9 ± 1.5
313.15 K, x1 = 0.1033 | 1125.3 ± 0.4 | 112.7 ± 1.7
313.15 K, x1 = 0.2048 | 1170 ± 0.4 | 144.9 ± 2.2
313.15 K, x1 = 0.2943 | 1189.2 ± 0.4 | 172.4 ± 2.7
313.15 K, x1 = 0.3847 | 1200.8 ± 0.4 | 200.3 ± 3.1
313.15 K, x1 = 0.4774 | 1208.7 ± 0.4 | 229.3 ± 3.6
313.15 K, x1 = 0.5797 | 1214.8 ± 0.4 | 261.8 ± 4.1
313.15 K, x1 = 0.6632 | 1218.4 ± 0.4 | 289.2 ± 4.5
313.15 K, x1 = 0.8092 | 1223 ± 0.4 | 337.7 ± 5.2
313.15 K, x1 = 0.907 | 1225.3 ± 0.4 | 370.3 ± 5.7
318.15 K, x1 = 0.0477 | 1071 ± 0.4 | 94.4 ± 1.5
318.15 K, x1 = 0.1033 | 1121.8 ± 0.4 | 113.6 ± 1.8
318.15 K, x1 = 0.2048 | 1166.4 ± 0.4 | 146.2 ± 2.3
318.15 K, x1 = 0.2943 | 1185.6 ± 0.4 | 173.9 ± 2.7
318.15 K, x1 = 0.3847 | 1197.3 ± 0.4 | 202 ± 3.1
318.15 K, x1 = 0.4774 | 1205.3 ± 0.4 | 231.2 ± 3.6
318.15 K, x1 = 0.5797 | 1211.3 ± 0.4 | 263.9 ± 4.1
318.15 K, x1 = 0.6632 | 1215 ± 0.4 | 291.6 ± 4.5
318.15 K, x1 = 0.8092 | 1219.6 ± 0.4 | 340.3 ± 5.3
318.15 K, x1 = 0.907 | 1221.9 ± 0.4 | 373 ± 5.8

[3]
Conditions | excess molar enthalpy [kcal/mol]
x1 = 0.0504 | -0.115 ± 0.00287
x1 = 0.0997 | -0.183 ± 0.00406
x1 = 0.1468 | -0.219 ± 0.00478
x1 = 0.2004 | -0.236 ± 0.00526
x1 = 0.2921 | -0.231 ± 0.00502
x1 = 0.3935 | -0.204 ± 0.00454
x1 = 0.4806 | -0.19 ± 0.0043
x1 = 0.5727 | -0.157 ± 0.00359
x1 = 0.6687 | -0.124 ± 0.00287
x1 = 0.8212 | -0.0681 ± 0.00191
